According to the supplement of paper PMC10307832:

What was measured:
Salubrinal + Foretinib = compound: O=C(/C=C/c1ccccc1)NC(NC(=S)Nc1cccc2cccnc12)C(Cl)(Cl)Cl [Salubrinal] + COc1cc2c(Oc3ccc(NC(=O)C4(C(=O)Nc5ccc(F)cc5)CC4)cc3F)ccnc2cc1OCCCN1CCOCC1 [Foretinib] (partner 0.25 µM); experiment: relative viability (nuclei count vs DMSO), 5 days (fraction); higher = more cells survive
Outline: (§1)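 Cells from lung cancer lines were seeded into 1536-well plates and, one day later, dosed by pin tool. Treatments were either a single drug or a fixed dose of an anchor drug with five library-drug doses (not always all listed) in √10 steps. After 5 days, nuclei were stained in a one-step fixation (final 0.05% Triton X-100, 1% formaldehyde, 1 ug/ml Hoechst) and counted on 4× images, and relative viability is the treated-to-vehicle nuclei ratio, as the median of duplicate plates.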

[1] = compound: Cc1ccc2nc(NCCN)c3ncc(C)n3c2c1 + CC1(C)CCC(c2ccc(Cl)cc2)=C(CN2CCN(c3ccc(C(=O)NS(=O)(=O)c4ccc(N[C@H](CCN5CCOCC5)CSc5ccccc5)c(S(=O)(=O)C(F)(F)F)c4)cc3)CC2)C1 [Navitoclax] (partner 0.5 µM); experiment: as above
Outline: as §1

Cell Line | relative viability (Salubrinal + Foretinib; first compound 0.08 µM) | relative viability (Salubrinal + Foretinib; first compound 0.253 µM) | relative viability (Salubrinal + Foretinib; first compound 0.8 µM) | relative viability (Salubrinal + Foretinib; first compound 2.53 µM) | relative viability (Salubrinal + Foretinib; first compound 8 µM) | relative viability ([1]; first compound 0.04 µM) | relative viability ([1]; first compound 0.1265 µM) | relative viability ([1]; first compound 0.4 µM) | relative viability ([1]; first compound 1.265 µM) | relative viability ([1]; first compound 4 µM)
NCI-H460 | 1.15 | 0.987 | 0.975 | 1.09 | 0.914 | 1.27 | 1.08 | 1.1 | 1.22 | 1.06
NCI-H520 | 0.914 | 0.798 | 0.932 | 0.721 | 0.912 | 1.19 | 1.09 | 1.12 | 1.1 | 0.953
NCI-H596 | 0.949 | 1.17 | 0.809 | 0.799 | 0.701 | 0.945 | 0.896 | 0.916 | 0.678 | 1.11
NCI-H647 | 1.4 | 1.2 | 1.27 | 1.17 | 1.12 | 1.08 | 1.06 | 1.17 | 0.804 | 0.908
NCI-H650 | 1.06 | 1.19 | 1.02 | 1.1 | 1.05 | – | – | – | – | –
NCI-H661 | 0.996 | 1.06 | 1.05 | 0.991 | 1.02 | – | – | – | – | –
NCI-H727 | 1.09 | 0.856 | 1.06 | 0.778 | 0.898 | 0.379 | 0.475 | 0.41 | 0.238 | 0.413
NCI-H838 | 1.13 | 1.11 | 1.06 | 1.02 | 1.06 | 1.23 | 1.05 | 1.16 | 1.15 | 1.12
NCI-H1299 | 1.12 | 1.07 | 1.14 | 1.05 | 1.05 | 1.02 | 1.04 | 1.06 | 1.02 | 0.898
NCI-H1355 | 1.08 | 1.01 | 0.977 | 0.951 | 0.883 | 0.909 | 0.942 | 0.924 | 0.9 | 0.806
NCI-H1395 | 0.993 | 1.1 | 0.938 | 0.92 | 1.08 | 1.27 | 1.13 | 1.31 | 1 | 1.1
NCI-H1437 | 1.3 | 1.23 | 1.3 | 1.25 | 1.29 | 1.08 | 1.03 | 1.12 | 1.07 | 0.992
NCI-H1563 | 0.952 | 0.919 | 0.903 | 0.929 | 0.866 | – | – | – | – | –
NCI-H1650 | 1.26 | 1.02 | 1.08 | 1.14 | 0.894 | 1.3 | 1 | 1.12 | 1.25 | 0.934
NCI-H1651 | 1.01 | 0.759 | 1.02 | 0.748 | 0.772 | 1.02 | 1.02 | 1.19 | 1.18 | 0.955
NCI-H1666 | 0.987 | 0.924 | 0.98 | 0.999 | 1.01 | 0.886 | 0.922 | 0.96 | 0.89 | 0.776
NCI-H1703 | 0.319 | 0.459 | 0.349 | 0.354 | 0.337 | 1.3 | 0.881 | 1 | 1.18 | 0.707
NCI-H1734 | 0.944 | 0.774 | 0.981 | 0.841 | 0.779 | 0.818 | 0.803 | 0.8 | 0.808 | 0.803

Cell Line | relative viability (Salubrinal + Foretinib; first compound 0.08 µM) | relative viability (Salubrinal + Foretinib; first compound 0.253 µM) | relative viability (Salubrinal + Foretinib; first compound 0.8 µM) | relative viability (Salubrinal + Foretinib; first compound 2.53 µM) | relative viability (Salubrinal + Foretinib; first compound 8 µM) | relative viability ([1]; first compound 0.04 µM) | relative viability ([1]; first compound 0.1265 µM) | relative viability ([1]; first compound 0.4 µM) | relative viability ([1]; first compound 1.265 µM) | relative viability ([1]; first compound 4 µM)
NCI-H1755 | 0.95 | 0.928 | 0.897 | 0.911 | 0.937 | 1.04 | 0.971 | 0.997 | 1.02 | 0.98
NCI-H1792 | – | – | – | – | – | 0.642 | 0.658 | 0.645 | 0.619 | 0.594
NCI-H1793 | 0.879 | 0.645 | 0.754 | 0.595 | 0.508 | 0.467 | 0.417 | 0.418 | 0.477 | 0.476
NCI-H1915 | 1.11 | 0.932 | 1.28 | 1.14 | 1.08 | 0.793 | – | 0.781 | 0.774 | 0.766
NCI-H1944 | 0.871 | 0.987 | 0.885 | 0.913 | 0.904 | 1.11 | 1.01 | 1.04 | 1.06 | 1.03
NCI-H1975 | 1.05 | 0.86 | 1 | 0.944 | 0.923 | 1.06 | 1.12 | 1.08 | 0.952 | 0.863
NCI-H1993 | 0.818 | 0.767 | 0.792 | 0.736 | 0.713 | 0.799 | 0.782 | 0.676 | 0.752 | 0.692
NCI-H2009 | 1.28 | 1.2 | 1.27 | 1.22 | 1.24 | 1.19 | 1.08 | 1.17 | 1.17 | 1.09
NCI-H2023 | 1.03 | 0.882 | 0.777 | 0.844 | 0.818 | 1.05 | 0.999 | 1.03 | 1.03 | 0.954
NCI-H2085 | 1.2 | 0.793 | 0.894 | 0.924 | 1.01 | 1.27 | 1.12 | 1.08 | 1.06 | 1.08
NCI-H2087 | 1.12 | 0.881 | 1.13 | 1.36 | 1.02 | 0.985 | 1.09 | 1.01 | 0.856 | 1.06
NCI-H2126 | 1.51 | 1.13 | 1.1 | 1.25 | 1.11 | 0.881 | 0.886 | 0.815 | 0.746 | 0.792
NCI-H2170 | 1.14 | 0.808 | 1.07 | 1.04 | 0.888 | 0.687 | 0.659 | 0.59 | 0.601 | 0.598
NCI-H2228 | 0.976 | 0.875 | 0.953 | 0.844 | 0.868 | 0.794 | 0.843 | 0.702 | 0.732 | 0.674
NCI-H2342 | 1.1 | 1.04 | 1.1 | 1.09 | 0.927 | – | – | – | – | –
NCI-H2347 | 0.906 | 1.15 | 1.4 | 0.797 | 1.08 | 0.871 | 0.723 | 0.715 | 0.787 | 0.677
NCI-H2405 | 1.06 | 1.05 | 1.05 | 1.05 | 1.01 | 0.849 | 0.905 | 0.936 | 0.718 | 0.725
SW 900 | 0.78 | – | 0.806 | 0.698 | 0.659 | – | – | – | – | –
